# According to publication PMC2810561 (Journal of the American Chemical Society, 2009):
# Test system: T84 human intestinal cells
# Format: cell-based
substance,measurement,value
cholera toxin,secretory response (short-circuit current) to cholera toxin,a pronounced secretory response was observed
